For data set [1], the target named is T1, 5-lipoxygenase (Rattus norvegicus, UniProt P12527).
T1 construct: The supernatant solution (cytosol fraction) containing 5-lipoxygenase was stored; endogenous in cells; host or cells: RBL-1 rat basophilic leukemia cells, 105,000 x g supernatant (cytosol)
T1 sequence (P12527 1-673): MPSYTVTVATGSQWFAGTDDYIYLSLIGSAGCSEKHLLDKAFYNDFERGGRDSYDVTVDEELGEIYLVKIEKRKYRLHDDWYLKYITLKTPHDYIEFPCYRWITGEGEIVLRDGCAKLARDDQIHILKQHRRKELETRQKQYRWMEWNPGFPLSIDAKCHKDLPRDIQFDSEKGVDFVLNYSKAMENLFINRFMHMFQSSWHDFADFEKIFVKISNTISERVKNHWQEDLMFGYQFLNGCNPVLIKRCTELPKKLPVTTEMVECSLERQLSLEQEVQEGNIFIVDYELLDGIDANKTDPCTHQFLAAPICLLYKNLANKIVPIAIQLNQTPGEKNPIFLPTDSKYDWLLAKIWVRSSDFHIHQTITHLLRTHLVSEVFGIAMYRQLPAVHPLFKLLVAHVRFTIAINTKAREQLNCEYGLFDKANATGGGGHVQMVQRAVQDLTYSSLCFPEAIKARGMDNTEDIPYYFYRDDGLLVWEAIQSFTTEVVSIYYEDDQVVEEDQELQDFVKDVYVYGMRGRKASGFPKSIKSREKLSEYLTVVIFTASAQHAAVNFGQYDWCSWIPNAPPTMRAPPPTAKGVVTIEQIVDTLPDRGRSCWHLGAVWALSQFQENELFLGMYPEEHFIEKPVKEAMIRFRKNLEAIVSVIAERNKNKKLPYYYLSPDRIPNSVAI
The experiment in a line: Inhibition of soluble 5-lipoxygenase in RBL-1 cell extract (cytosol 5-lipoxygenase of rat basophile leukemia cells; RBL). The following applies: for IC50: RBL-1 cell extract; for activity in 5-lipoxygenase assay: qualitative. Format: biochemical. How it is done: Effect of Compounds on Cytosol 5-Lipoxygenase of Rat Basophile Leukemia Cells
Washed rat RBL cells (4×108) were suspended in 20 ml of […] potassium phosphate buffer at pH 7.4 containing 10% ethylene glycol/1 mM EDTA (Buffer A). The cell suspension was sonicated at 20 KHz for 30 seconds, and the sonicate was centrifuged at 10,000 × g for 10 minutes, followed by further centrifugation at 105,000 × g for 1 hr. The supernatant solution (cytosol fraction) containing 5-lipoxygenase was stored at -70° C. Protein concentration was determined according to the procedure of Bradford (Bradford Dye Reagent) with bovine serum albumin as a standard.
For routine assay of 5-lipoxygenase the mixture contained 50 mM potassium phosphate buffer at pH 7.4, 2 mM CaCl2, 2 mM ATP, […] arachidonic acid (0.1 Ci) and enzyme ([…] of protein) in a final volume of […]. The reaction was carried out at 24° C. for 3 minutes. The mixture was extracted with 0.2 ml of an ice-cold mixture of ethyl ether:methanol: 0.2M citric acid (30:4:1). The extract was subjected to thin-layer chromatography at -10° C. in a solvent system of petroleum ether:ethyl ether:acetic acid (15:85:0.1). The silica gel zones corresponding to authentic arachidonic acid and its metabolites were scraped into scintillation vials for counting. The enzyme activity was expressed in terms of the amount of arachidonic acid oxygenated for 3 minutes.
Table 3 provides data for the inhibition of soluble 5-lipoxygenase in RBL-1 cell extract by racemic compound 202, as well as its enantiomers, compounds […], 234, and 236.

Data set [2] deals with 5-lipoxygenase (ex vivo LTB4). Briefly: Ex vivo whole blood 5-lipoxygenase evaluation (ex vivo LTB4). The following applies: rat, 10 mg/kg po, 180'. It counts as in vivo. How it is done: Ex-vivo Mouse and Rat Whole Blood 5-lipoxygenase Evaluation
CD-1 female mice, weighing 18-25 grams, and CD female rates, weighing 150-230 grams, were obtained from Charles River Labs. Compounds were dissolved in 0.5% DMSO in 0.9% NaCl for administration in mice (0.5 mg/ml) and in an alcohol Vehicle (2% benzyl alcohol, 1% ethanol, 40% PEG 300 10% propylene glycol, 47% of 5% dextrose plus 3.5% pluronic F-68 in DiH2 O) for use in rates (5 mg/ml). […] Heparinized whole blood (0.3 ml) was added into 1.5 ml Eppendorf centrifuge tub containing […] of 2 mM calcium ionophore A23187 (the final concentration of A23187 was […]). The sample was incubated for 30 minutes in a water bath of 37° C., and then centrifuged for 2 minutes. The plasma was diluted (×120) and assayed for LTB4 using EIA.
Table 3 provides data for the ex-vivo mouse and rat whole blood 5-lipoxygenase values on administration of racemic compound 202, as well as its enantiomers, compounds 216, 217, 234, and 236.

For data set [3] the following is noted: cited from earlier work.
The next data set concerns platelets. To be noted: active concentration; cited from earlier work.
The test system of a further data set is PAF receptor. To be noted: cited from earlier work; for PAF receptor antagonism / inhibition of PAF binding: qualitative.
The subject of data set [4] is 5-lipoxygenase. To be noted: qualitative; cited from earlier work.
For data set [5], the system named is PAF-induced rat cutaneous vascular permeability. To be noted: 30 mg/kg body weight; orally active; cited from earlier work.

Here are results for 17 compounds from patent US5681966A, “Compounds and methods for the treatment of cardiovascular, inflammatory and immune disorders” (Cytomed, Inc., priority 1995, dated 1997).

For `C[C@H](C#C[C@@H]1CC[C@@H](c2ccc(F)cc2)O1)N(O)C(N)=O`, on 5-lipoxygenase [1], the IC50 came to 3800 nM.

In the case of `C[C@@H](C#C[C@@H]1CC[C@@H](c2ccc(F)cc2)O1)N(O)C(N)=O`, on 5-lipoxygenase [1], it took 3510 nM to reach half-maximal inhibition (IC50).

On to `C[C@H](C#C[C@H]1CC[C@H](c2ccc(F)cc2)O1)N(O)C(N)=O`, for which the IC50 at 5-lipoxygenase [1] is 3100 nM.

As for `C[C@@H](C#C[C@H]1CC[C@H](c2ccc(F)cc2)O1)N(O)C(N)=O`, 2000 nM corresponded to half-maximal inhibition at 5-lipoxygenase [1] (IC50).

Take `NC(=O)N(O)CCCCC1CCC(c2ccc(F)cc2)O1` (stereo not shown): on 5-lipoxygenase [1], the IC50 is 618 nM. The “ex vivo LTB4 % (inhibition), last sub-column” value in data set [2] worked out at 83%.

At 5-lipoxygenase [1], `NC(=O)N(O)CCCC[C@@H]1CC[C@@H](c2ccc(F)cc2)O1` yielded an IC50 of 1100 nM.

Consider “1-O-alkyl-2-acetyl-sn-glycerol-3-phosphorylcholine [PAF]”, for which the plasma half life in data set [3] is 2 to 4 min. Moreover, the “potency (active at)” value with platelets is 10^-12 to 10^-9 M.

Regarding `CCCCCCCCCCCCCCCCCCNC(=O)OCC(COP(=O)([O-])OCC[n+]1ccsc1)OC` (racemic) [CV-3988, rac-3-(N-n-octadecyl-carbamoyloxy-ω-methoxypropyl-2-thiazolioethyl phosphate], the “PAF receptor antagonism / inhibition of PAF binding” value with PAF receptor is “PAF receptor antagonist properties”.

Take `CC(C#C[C@@H]1CC[C@@H](c2ccc(F)cc2)O1)N(O)C(N)=O` (relative stereo): the IC50 at 5-lipoxygenase [1] stood at 2800 nM. Also, the inhibition at 1.6 µM at 5-lipoxygenase [1] (dose 1.6 uM, read-out: RBL % inh.) was determined as 20%.

In the case of `CN(O)C(=O)NCCCO[C@@H]1CC[C@@H](c2ccc(F)cc2)O1` (relative stereo) [Compound 9, 2-(4-fluorophenyl)-5-[3-(N'-methyl-N'-hydroxyureidyl)propoxy] tetrahydrofuran], on 5-lipoxygenase [1], the “activity in 5-lipoxygenase assay” value is reported as “showed activity in this assay”.

Regarding `CN(O)C(=O)NCCCO[C@@H]1CC[C@H](c2ccc(F)cc2)O1` (relative stereo) [Compound 11, 2-(4-fluorophenyl)-5-[3-(N'-methyl-N'-hydroxyureidyl)propoxy] tetrahydrofuran], the “activity in 5-lipoxygenase assay” value on 5-lipoxygenase [1] is reported as “showed activity in this assay”.

For `NC(=O)N(O)CCCO[C@@H]1CC[C@@H](c2ccc(F)cc2)O1` (relative stereo) [Compound 14, 2-(4-fluorophenyl)-5-(3-hydroxyureidylpropoxy) tetrahydrofuran], the “activity in 5-lipoxygenase assay” value on 5-lipoxygenase [1] is given as “showed activity in this assay”.

`NC(=O)N(O)CCCO[C@@H]1CC[C@H](c2ccc(F)cc2)O1` (relative stereo) [Compound 15, 2-(4-fluorophenyl)-5-(3-hydroxyureidylpropoxy) tetrahydrofuran]: at 5-lipoxygenase [1], the “activity in 5-lipoxygenase assay” value is given as “showed activity in this assay”.

As to `COc1cc([C@H]2CC[C@H](c3cc(OC)c(OC)c(OC)c3)O2)cc(OC)c1OC` (relative stereo) [L-652,731, trans-2,5-bis-(3,4,5-trimethoxyphenyl) tetrahydrofuran], the “PAF receptor antagonism / inhibition of PAF binding” value in the data set on PAF receptor is given as “inhibits the binding of tritiated PAF to PAF receptor sites”. Moreover, the “relative potency, trans versus cis” value with PAF receptor (trans-L-652,731 vs cis-L-652,731) is on record as “approximately 1000 times”. In addition, in the data set with 5-lipoxygenase [4], the “effect on 5-lipoxygenase” value was “no effect on the enzyme 5-lipoxygenase”. Further, the “inhibition of PAF-induced cutaneous vascular permeability” value in data set [5] is on record as “inhibit PAF-induced rat cutaneous vascular permeability”.

Take `COc1cc([C@H]2CC[C@H](c3cc(OC)c(OC)c(OC)c3)S2)cc(OC)c1OC` (relative stereo) [L-653,150, trans-2,5-bis-(3,4,5-trimethoxyphenyl)tetrahydrothiophene]: in the data set with PAF receptor, the “PAF receptor antagonism / inhibition of PAF binding” value was “potent PAF antagonist”. For the same compound, the “effect on 5-lipoxygenase” value with 5-lipoxygenase [4] is reported as “moderate inhibitor of 5-lipoxygenase”.

For the compound `CCCOc1c(OC)cc([C@@H]2CC[C@@H](c3cc(OC)c(OC)c(OC)c3)O2)cc1S(C)(=O)=O` (relative stereo) [L-659,989, trans-2-(3-methoxy-4-propoxyphenyl-5-methylsulfonyl)-5-(3,4,5-trimethoxyphenyl)tetrahydrofuran], the “PAF receptor antagonism / inhibition of PAF binding” value with PAF receptor is “orally active, potent, competitive PAF receptor antagonist”. Also, the “equilibrium inhibition constant relative to trans-L-652,731” value in the data set with PAF receptor (vs trans-L-652,731) is reported as 10 times.

As to `C=CCC1=C[C@@]2(OC)C(=CC1=O)O[C@H](c1ccc(OC)c(OC)c1)[C@H]2C` [kadsurenone], in the data set with PAF receptor, the “PAF receptor antagonism / inhibition of PAF binding” value is “potent, specific and competitive inhibitor of PAF activity at the receptor level”.

In general, IC50 refers to the concentration at which inhibition is half-maximal.
